According to patent publication US6881756B2, “Method for treating skin disorders” (Johnson & Johnson Consumer Companies, Inc., priority 2001, dated 2005):

Key:
Albino male CD-1 mice [1] = experiment: Allergic contact dermatitis model: oxazolone-induced ear swelling; type: in vivo, mouse; settings: for % Inhibition of the Ear Swelling Response: 20 μL to left ear 1 hour after oxazolone challenge, ear biopsy weight at 24 hours
Method: Allergic contact dermatitis is an animal model of skin inflammation that mimics many aspects of human skin inflammation. See Young J M, De Young L M, Cutaneous Models of Inflammation for the Evaluation of Topical and Systemic Pharmacological Agents; In: Pharmacological Methods in the Control of Inflammation, Alan R. Liss, Inc, pp. 215-231 (1989). […] The inflammatory response is established by using oxazolone as the chemical sensitizer. A topical anti-inflammatory agent is assessed by measuring its ability to suppress the ear swelling reaction after applying a challenge dose of oxazolone to the ear followed by the test agent.
In this assay, the totarol (Mende-DEK Limited, Masterton, New Zealand) was evaluated against hydrocortisone, a steroid known to inhibit allergic contact dermatitis. Albino male CD-1 mice, 7-9 weeks old, were induced on the shaved abdomen with 50 μL of 3% oxazolone in acetone/corn oil (Day 0). On Day 5, a 20 μL volume of 2% oxazolone in acetone was applied to the dorsal left ear of the mouse. Test agents were applied to the left ear (20 μL) 1 hour after oxazolone challenge in a 70% ethanol/30% propylene glycol vehicle. The right ear was not treated. The mice were sacrificed by CO2 inhalation 24 hours after the oxazolone challenge, the left and right ears were removed and a 7-mm biopsy was taken from each ear and weighed. Anti-inflammatory effects of compounds are evident as an inhibition of the increase in ear weight.

Albino male CD-1 mice [2] = experiment: Neurosensory (neurogenic) inflammation model: resiniferatoxin-induced ear edema; type: in vivo, mouse; settings: for activity in the neurosensory inflammation model (in words): resiniferatoxin ear edema model, overall; for % Inhibition of the Ear Edema: 20 μl to left ear, biopsy weight at 30 minutes
From the text: Neurosensory inflammation, also referred to as neurogenic inflammation, is a type of inflammation triggered by sensory nerve activation in skin. Certain natural substances that act on vanilloid receptors cause the nerves (C-fibers) to release inflammatory neuropeptides such as substance P and calcitonin gene-related peptide. In mouse skin, an edema response rapidly occurs upon application of either the vanilloid receptor activators, capsaicin or resiniferatoxin. Compounds that inhibit the response to neurosensory stimulation could be useful as topical analgesics, itch inhibitors or soothing agents for irritated or damaged skin. See U.S. Pat. No. 6,090,811.
Albino male CD-1 mice, 7-9 weeks old, were used. Resiniferatoxin alone (0.05%) or a combination of 0.05% resiniferatoxin with test compound was made in acetone. A 20-μl volume of the solutions was applied to the left ears (10 mice per treatment group). The right ear was not treated. The mice were sacrificed by CO2 inhalation 30 minutes after applying the solutions. The left and right ears were removed and a 7-mm biopsy was removed from each ear and weighed. The difference in biopsy weights between the right and left ear was calculated. The percent inhibition was calculated by comparing treatments to resiniferatoxin alone. Anti-edema effects of compounds are evident as an inhibition of the increase in ear weight.

SMILES | topical anti-inflammatory activity (in words) (Albino male CD-1 mice [1]; oxazolone allergic contact dermatitis model, overall) | % Inhibition of the Ear Swelling Response (Albino male CD-1 mice [1]; topical dose 0.03% w/v) [%] | % Inhibition of the Ear Swelling Response (Albino male CD-1 mice [1]; topical dose 0.3% w/v) [%] | % Inhibition of the Ear Swelling Response (Albino male CD-1 mice [1]; topical dose 1% w/v) [%] | activity compared with hydrocortisone (in words) (Albino male CD-1 mice [1]; totarol at its two highest doses vs highest dose of hydrocortisone) | activity in the neurosensory inflammation model (in words) (Albino male CD-1 mice [2]) | % Inhibition of the Ear Edema (Albino male CD-1 mice [2]; topical dose 1% w/v with 0.05% resiniferatoxin in acetone) [%] | % Inhibition of the Ear Swelling Response (Albino male CD-1 mice [1]; topical dose 0.001% w/v) [%] | % Inhibition of the Ear Swelling Response (Albino male CD-1 mice [1]; topical dose 0.01% w/v) [%] | % Inhibition of the Ear Swelling Response (Albino male CD-1 mice [1]; topical dose 0.1% w/v) [%] | % Inhibition of the Ear Edema (Albino male CD-1 mice [2]; topical dose 0.5% w/v with 0.05% resiniferatoxin in acetone) [%]
CC(C)c1c(O)ccc2c1CC[C@H]1C(C)(C)CCC[C@]21C [Totarol] | highly effective as a topical anti-inflammatory agent with dose-dependent inhibition of the inflammatory response | 44.6 | 80.0 | 82.3 | equivalent in activity to the highest dose of hydrocortisone | highly effective | 46.6 | – | – | – | –
C[C@]12CCC(=O)C=C1CC[C@@H]1[C@@H]2[C@@H](O)C[C@@]2(C)[C@H]1CC[C@]2(O)C(=O)CO [Hydrocortisone, reference compound] | – | – | – | – | – | – | – | 36.0 | 65.5 | 84.2 | –
CCCCC/C=C\C/C=C\C/C=C\C/C=C\CCCC(=O)NCc1ccc(O)c(OC)c1 [Arvanil, reference compound] | – | – | – | – | – | also active | – | – | – | – | 26.8
